Assay results reported in patent US20060280697A1, “Composition” (Conopco Inc, d/b/a UNILEVER, priority 2005, published 2006).
“Also recorded” adds a separate entry of the source.

Test: cooling sensation / cooling effect of synthesised compounds

Structure (SMILES)	cooling effect
COc1cccc(C2=CCN(c3ccccc3O)C(=O)N2)c1 [1-(2′-hydroxyphenyl)-4-(3″-methoxyphenyl)-1,2,3,6-tetrahydropyrimidine-2-one]	good cooling effects; also recorded: exhibit a cooling effect
O=C1NC(c2ccccc2)=CCN1c1ccccc1O [1-(2′-hydroxyphenyl)-4-phenyl-1,2,3,6-tetrahydropyrimidine-2-one]	good cooling effects; also recorded: exhibit a cooling effect
O=C1NC(c2cccc([N+](=O)[O-])c2)=CCN1c1ccccc1C(F)(F)F [1-(2′-trifluoromethylphenyl)-4-(3″-nitrophenyl)-1,2,3,6-tetrahydropyrimidine-2-one]	good cooling effects; also recorded: exhibit a cooling effect
O=C1NC(c2cccc([N+](=O)[O-])c2)=CCN1c1ccccc1 [1-phenyl-4-(3″-nitrophenyl)-1,2,3,6-tetrahydropyrimidine-2-one]	good cooling effects; also recorded: exhibit a cooling effect
